Earlier results as cited in patent US20120270783A1, “Rapid opioid detoxification” (priority 2011, published 2012).
Where two headings read alike, the source gives them in different places.

Key:
receptor sites = conditions: relative to naloxone
[1] = in vivo

| Structure (SMILES) | time to rapid awakening after discontinuation (after maintenance of anesthesia for approximately 1-10 hours at recommended doses) | time to rapid awakening after discontinuation, usual (usually, after maintenance of anesthesia for approximately 1-10 hours) | receptor sites occupied, more than naloxone (receptor sites) | half-life [1] | half-life ([1]; listed as Nalmefene) |
| --- | --- | --- | --- | --- | --- |
| CC(C)c1cccc(C(C)C)c1O [propofol, 2,6-diisopropyl phenol] | less than 20 minutes | 10 to 15 min | – | – | – |
| C=C1CC[C@@]2(O)[C@H]3Cc4ccc(O)c5c4[C@@]2(CCN3CC2CC2)[C@H]1O5 [nalmefene] | – | – | approximately 50% | 10.8 h | about 10.8 hours |
